This note sets out measurements from US12681006B2, “Methods of generating human endometrial stromal fibroblasts and three-dimensional multi-layered human endometrial tissue compositions” (Northwestern University, priority 2021, dated 2026).

Where “and” joins values, the source holds several entries; their conditions need not be identical. Identical values can stand only once.

Assay type in all cases: cell-based, human
Assay [1] deals with pluripotent stem cells (PSC). In words: Differentiation of PSC to intermediate mesoderm with CHIR99021, marker expression by qPCR/ICC. From the text: Generation of ESF from pluripotent stem cells (PSC) involves sequential differentiation of the cells through a series of intermediate progenitor cells species (FIG. 6). The first step (FIG. 1a) requires the specification of intermediate mesoderm (IM), a common mesodermal progenitor for both nephric and reproductive tracts (Yucer et al., 2017). […] We observed high levels of mesodermal-specific Brachyury (TBXT) gene expression, and concurrent reduction of pluripotency markers OCT3/4 and SOX2 in 2 days (FIG. 1b, d). LHX1 and PAX2, two transcription factors expressed in the intermediate mesoderm (IM), also were detected at this time (FIG. 1c, d). […] At day 4 of differentiation, TBXT expression was decreased, LHX1 and PAX2 expression was either maintained or increased, and expression of anti-Müllerian hormone receptor 2 (AMHR2), a specific marker of Müllerian duct mesenchyme, increased (FIG. 1b, c, e).
(§1) Monolayer Cell Culture and Differentiation: Both embryonic (H7) and iPS (reprogrammed from Coriell fibroblast GM03651 by Sendai virus (ThermoFisher #A16517) following manufacturer's instruction) cells lines of female origin (XX) were used for differentiation as well as co-culture. Cells were cultured in mTeSR1 media (STEMCELL Technologies #85875) and on Corning Matrigel hESC-Qualified Matrix (Corning™ #354277) coated tissue culture plastic plates. Lot specific dilution factor volume provided by the manufacturer is diluted into 24 mL of cold DMEM/F12 (ThermoFisher Scientific #11320-082). To coat: 1 mL of this solution is applied to 1 well of a 6 well plate (9.6 cm^2) and incubated at RT for 1 hr or 37 C for 30 min. To differentiate, PSC were dissociated to single-cell level using Accutase (EMD Millipore #SCR005). Once at single cell level, equal volume mTeSR1 was added to stop dissociation and cells were pelleted at 0.2e3 rcf for 5 min. Supernatant was discarded and the remaining pellet of PSC was resuspended in mTeSR1 and 10 μM Y27632 (Reprocell #04-0012-02) and plated onto Corning Matrigel hESC-Qualified Matrix coated tissue culture plates at 3×10^5 per 3.8 cm^2 or equivalent density. Media is replaced with Differentiation Basal Media (Advanced RPMI 1640 (Gibco #12633020), 1× Gluatmax (Gibco #35050061) and […] CHIR99021 (STEMCELL Technologies #72054). After 4 days, the media is changed to Differentiation Basal Media containing 100 ng/mL recombinant Human WNT7A (R&D Systems #3008-WN-025). The final differentiation treatment media was Differentiation Basal Media with 10 ng/mL Recombinant Human BMP2 (R&D Systems #355-BM010), and 10 nM β-estradiol (E2, Millipore Sigma #E2758-250MG). While it varies by cell line, the expected yield at day 12 off differentiation when starting with 3×10^5 stem cells is 0.6×10^6-13.2×10^6 PSC-ESF.
(§2) qRT-PCR: RNA Isolation was performed using the RNAqueous-Micro Total RNA Isolation Kit (ThermoFisher Scientific #AM1931) following manufacturer's instructions. DNAse treatment and reverse transcription were performed using SuperScript IV VILO Master Mix with ezDNase Enzyme (ThermoFisher Scientific #11766050) following manufacturer's instructions. Quantitative PCR was performed using SYBR Green PCR Master Mix (ThermoFisher Scientific #4312704) using the QuantStudio 7. ESC and iPSC differentiated cells were used for analysis. A list of primers can be found in Table 1.
Immunocytochemistry: Monolayer cultures: cells cultured on Matrigel coated coverslips were washed with 1×DPBS (Corning #21031CV) before fixing the cells using 4% Formaldehyde solution (Millipore Sigma #P6148) for 20 min at room temperature. After 20 min, cells are washed 3 times with 1×DPBS. Prior to staining, cells were blocked for 1 hr at RT in PBS (Fisher Scientific #AM9625), 0.1% BSA (Millipore Sigma #A7906), 0.25% Triton-X (Millipore Sigma #T8787), and 10% Normal Goat Serum (Jackson Immuno Research #005-000-121). Primary Antibodies were diluted into the same buffer for incubation at 4° C. overnight. […]

In another assay the test system is Hedgehog signaling. As to the kind of experiment: Inhibition of Hedgehog signaling in PSC-ESF/EEO co-cultures with cyclopamine, qPCR. The protocol: FIG. 12a-FIG. 12d. […] Related to FIG. 5 a. Schematic of treatment paradigm for inhibition of Hedgehog signaling. Co-cultures were cultured in vehicle treatment media with either 10 uM cyclopamine (+) or vehicle (EtOH, −). After 48 h co-cultures were harvested for RNA and qPCR analysis. b. Gene expression of direct downstream mediators of IHH signaling: GLI1 and GLI2. […] (d12 v.−ns p-value=0.0953; −v.+ns p-value−v.+p-value=0.2661). c. […] (Lachman, A., 2010; ENCODE Project Consortium, 2011) d. Top 10 pathways enriched in decidualized co-cultured PSC-ESF over decidualized monolayer ESF as analyzed by the integrated Bioplanet 2019 platform. Both enrichment analyses done using Enrichr with a 2-fold cutoff ((http://amp.pharm.mssm.edu/Enrichr/).
BMP2, a member of the TGF B family, is necessary for decidualization (FIG. 5d). BMP2 in ESF can be activated by hormone treatments, such as P4 and cAMP, which directly increase BMP2 expression to mediate decidualization in hESF (Lee et al., 2007). In the mouse, stromal BMP2 is further amplified indirectly by P4 activated IHH from the luminal epithelium (Lee et al., 2007). Increased stromal BMP2 subsequently mediates decidualization by activating WNT (WNT4) signaling, FK506-binding proteins (FKBP5), and prostaglandin (PTGS1) (Li et al., 2013). To examine the hormone mediated activation of IHH signaling in co-cultured PSC-ESF, we analyzed expression of IHH and BMP signaling targets after decidualization. […] HOXA10, a mediator of stromal hormone response, was not increased by co-culture. However, it trended towards an increase after hormone treatment, though without statistical significance (FIG. 5e). Importantly, we observed that BMP2 and BMP2 signaling targets (WNT4, FKBP5, and PTGS1) also were increased in expression in response to co-culture, while BMP2, FKBP5, and PTGS1 were further increased by hormone treatment (FIG. 5e).
as §2

The test system of assay [2] is PSC derived cells, day 4 of differentiation. As to the kind of experiment: WNT7A treatment day 4-8 to expand Müllerian duct mesenchyme (PSC-ESP), marker expression by qPCR/ICC. As for the experimental part: To preferentially expand the Müllerian duct mesenchyme population, at day 4 we continued activating the WNT/B-catenin pathway with WNT7A (100 ng/ml) treatment from day 4-8. […] The Müllerian duct is patterned along the anterior-posterior axis to develop into the fallopian tubes (HOXA9), endometrium (HOXA10 and HOXA11), cervix (HOXA11), and vagina (HOXA13) (Du and Taylor, 2015). […] Immunocytochemical (ICC) analyses validated the qPCR results with increasing nuclear expression of the HOXA11 transcription factor from day 0 to day 8 (FIG. 1g). The expression of mesenchymal lineage markers platelet derived growth factor beta (PDGFRβ) and vimentin (VIM) supported specification to the stromal cell type (FIG. 1h). HOXA11 was confirmed to be co-expressed with mesenchymal markers AMHR2 and VIM (FIG. 1h, i). […] Further, 93.31+1.46% of the cells were Ki67^+, confirming that the cells at day 8 are in cell cycle (FIG. 1i, j). PSC-ESP at day 8 of differentiation could be frozen and thawed for subsequent differentiation, generating cells with appropriate proliferative properties and lineage-specific marker expression (FIG. 7f, g). In toto, these findings indicate that developmentally and regionally appropriate endometrial stromal progenitors, which we termed PSC-ESP, were generated at this point of the differentiation protocol.
as §1
qRT-PCR: RNA Isolation was performed using the RNAqueous-Micro Total RNA Isolation Kit (ThermoFisher Scientific #AM1931) following manufacturer's instructions. DNAse treatment and reverse transcription were performed using SuperScript IV VILO Master Mix with ezDNase Enzyme (ThermoFisher Scientific #11766050) following manufacturer's instructions. Quantitative PCR was performed using SYBR Green PCR Master Mix (ThermoFisher Scientific #4312704) using the QuantStudio 7. ESC and iPSC differentiated cells were used for analysis. A list of primers can be found in Table 1. […]
For orientation: In qPCR the cycle at which signal appears reflects the starting amount.

The mark [3] stands for this setting: 10 uM cyclopamine, 48 h, vs vehicle (EtOH).
Where [4] appears, read: day 8, after CHIR99021 day 0-4 and WNT7A day 4-8, ICC.

Regarding `Cc1c[nH]c(-c2cnc(NCCNc3ccc(C#N)cn3)nc2-c2ccc(Cl)cc2Cl)n1` [CHIR99021], in assay [1] (8 μM CHIR99021, day 2), the “LHX1 and PAX2 (intermediate mesoderm transcription factors) expression” value is reported as “detected”. The “mesodermal-specific Brachyury (TBXT) gene expression” value in assay [1] (8 μM CHIR99021, day 2 vs day 0, qPCR) was “high levels”. Also, the “expression of AMHR2, marker of Müllerian duct mesenchyme” value in assay [1] (8 μM CHIR99021, day 4 of differentiation) was “increased”. For the same molecule, the “pluripotency markers OCT3/4 and SOX2” value in assay [1] (8 μM CHIR99021, in 2 days, qPCR/ICC) is given as “reduction”. The “expression of endoderm and mesendoderm marker SOX17” value in assay [1] (8 μM CHIR99021, qPCR) is given as “low but significant increase”. Moreover, the “cell expansion of treated PSC” value in assay [1] (CHIR99021 treatment of PSC) is “rapid expansion of cells”. Besides, the “LHX1 and PAX2 induction, comparison of concentrations of CHIR99021” value in assay [1] (day 4, ESC, both concentrations of CHIR99021) is “highly, but differently induced”.
For the molecule `CC1=C2C[C@H]3[C@@H](CC=C4C[C@@H](O)CC[C@@]43C)[C@@H]2CC[C@]12O[C@@H]1C[C@H](C)CN[C@H]1[C@H]2C` [cyclopamine], in the assay with Hedgehog signaling (setting [3]), the GLI1 gene expression entry was “significantly downregulated” and the GLI2 gene expression result is “similarly regulated without statistical significance”. In the assay with Hedgehog signaling (cyclopamine 48 hr, co-culture), the BMP2 expression result was “trended towards a reduction”, the HOXA10 expression entry was “significant reduction” and the NR2F2 expression result is “significant reduction”.

B1: WNT7A: recombinant Human WNT7A (R&D Systems), used as second Wnt/β-catenin agonist (protein, UniProt O00755 32-349, looked up)
Protein Wnt-7a: LGASIICNKIPGLAPRQRAICQSRPDAIIVIGEGSQMGLDECQFQFRNGRWNCSALGERTVFGKELKVGSREAAFTYAIIAAGVAHAITAACTQGNLSDCGCDKEKQGQYHRDEGWKWGGCSADIRYGIGFAKVFVDAREIKQNARTLMNLHNNEAGRKILEENMKLECKCHGVSGSCTTKTCWTTLPQFRELGYVLKDKYNEAVHVEPVRASRNKRPTFLKIKKPLSYRKPMDTDLVYIEKSPNYCEEDPVTGSVGTQGRACNKTAPQASGCDLMCCGRGYNTHQYARVWQCNCKFHWCCYVKCNTCSERTEMYTCK
For B1, in assay [2] (100 ng/mL WNT7A day 4 to day 8, only in the 8 uM CHIR99021 condition), the “expression of endometrium specific genes HOXA10 and HOXA11” value is reported as “only induced high expression”. Also, in assay [2] (100 ng/ml WNT7A, day 4-8, qPCR), the “Müllerian mesenchyme specific AMHR2 expression” value is given as “further induced” and the “epithelium specific marker WNT7A expression” value is on record as “did not induce”. In addition, the “HOXA10 and HOXA11 expression” value in assay [2] (100 ng/ml WNT7A, day 8 of differentiation, qPCR) was “significantly upregulated”. The “HOXA9 (fallopian tube) and HOXA13 (vagina) expression” value in assay [2] (WNT7A day 4 through 8, d4 vs d8, qPCR) is on record as “not significantly upregulated”. In assay [2] (setting [4]), the “DAPI+ cells expressing both AMHR2 and HOXA11” value was 78.55+8.17% and 78.5%; the “DAPI+ cells positive for HOXA11” value was 92.27+5.15% and 92.3%; the “cells Ki67+” value was 93.31+1.46% and 93.3%.
